Data reported in US20080194585A1, “Fungicidal Pyrazine Derivatives” (priority 2005, published 2008).
Marks after values point to notes of the source that are not given here.

Key:
Plasmopara viticola = experiment: Test D: grape downy mildew, spray after inoculation of grape seedlings; type: in vivo
From the text: Upon removal, disease ratings were made. […] A dash (-) indicates no test results.

Phytophthora infestans = experiment: whole plant or invertebrate; type: in vivo
Septoria tritici = experiment: Test J: wheat leaf blotch, preventive spray on wheat seedlings; type: in vivo
From the text: A dash (-) indicates no test results.

[1] = system: Puccinia recondita f. sp. tritici; experiment: Test K: wheat leaf rust, preventive spray on wheat seedlings
Botrytis cinerea = experiment: Test E: tomato botrytis, preventive spray on tomato seedlings
Septoria nodorum = experiment: Test H: wheat glum blotch, preventive spray on wheat seedlings
Method: (the causal agent of wheat glum blotch) and incubated in a saturated atmosphere at 20° C. for 48 h, and then moved to a growth chamber at 22° C. for 5 days, after which disease ratings were made.

[2] = system: Erysiphe graminis f. sp. tritici; experiment: Test L: wheat powdery mildew, preventive spray on wheat seedlings
Sclerotinia sclerotiorum = experiment: Test C: cucumber white mold, preventive spray on cucumber seedlings
Pythium aphanidermatum = experiment: Test A: bluegrass pythium blight, preventive spray on bluegrass seedlings
Rhizoctonia oryzae = experiment: Test G: turf brown patch, preventive spray on creeping bent grass seedlings
Method: (the causal agent of turf brown patch) and incubated in a saturated atmosphere at 27° C. for 24 h, and then moved to a growth chamber at 27° C. for 5 days, after which disease ratings were made.

[3] = system: Colletotrichum orbiculare; experiment: Test B: cucumber Colletotrichum anthracnose, preventive spray on cucumber seedlings

Row | Structure (SMILES) | Test D disease control rating (Plasmopara viticola; 200 ppm) | Test F disease control rating (Phytophthora infestans; 200 ppm) | Test J disease control rating (Septoria tritici; 200 ppm) | Test K disease control rating ([1]; 200 ppm) | Test E disease control rating (Botrytis cinerea; 200 ppm) | Test H disease control rating (Septoria nodorum; 200 ppm) | Test L disease control rating ([2]; 200 ppm) | Test C disease control rating (Sclerotinia sclerotiorum; 200 ppm) | Test A disease control rating (Pythium aphanidermatum; 200 ppm) | Test G disease control rating (Rhizoctonia oryzae; 200 ppm) | Test B disease control rating ([3]; 200 ppm) | Test D disease control rating (Plasmopara viticola; 40 ppm (*)) | Test F disease control rating (Phytophthora infestans; 40 ppm (*)) | Test J disease control rating (Septoria tritici; 40 ppm (*)) | Test K disease control rating ([1]; 40 ppm (*)) | Test E disease control rating (Botrytis cinerea; 40 ppm (*)) | Test H disease control rating (Septoria nodorum; 40 ppm (*)) | Test L disease control rating ([2]; 40 ppm (*)) | Test C disease control rating (Sclerotinia sclerotiorum; 40 ppm (*)) | Test A disease control rating (Pythium aphanidermatum; 40 ppm (*)) | also measured
1 | CC(C)Cn1c(-c2ccc(C#N)cc2)c(Cl)nc(-n2cccn2)c1=O [compound 145] | 20% | 0% | 100% | 68% | 99% | 0% | 0% | 49% | 0% | 40% | 0% | – | – | – | – | – | – | – | – | – | –
2 | O=c1c(-n2cncn2)nc(Cl)c(-c2c(F)cccc2F)n1-c1ccccc1 [compound 162] | 8% | 0% | 100% | 27% | 85% | 0% | 0% | 0% | 0% | 47% | 9% | – | – | – | – | – | – | – | – | – | –
3 | CCC(C)Cn1c(-c2ccc(F)cc2Cl)c(Cl)nc(-n2cccn2)c1=O (stereo not drawn) [compound 164] | 44% | 0% | 100% | 100% | 100% | 100% | 100% | 91% | 0% | 74% | 100% | – | – | – | – | – | – | – | – | – | –
4 | CC(C)Cn1c(-c2ccccc2F)c(Cl)nc(-n2cccn2)c1=O [compound 174] | – | – | – | – | – | – | – | – | – | – | – | 15* % | 0* % | 100* % | 99* % | 100* % | 99* % | 98* % | 0* % | 0* % | Test G disease control rating (Rhizoctonia oryzae; 40 ppm (*)): 62* %; Test B disease control rating ([3]; 40 ppm (*)): 0* %
5 | CC(C)Cn1c(-c2ccccc2F)c(Cl)nc(-n2cncn2)c1=O [compound 175] | 12% | 0% | 98% | 60% | 99% | 99% | 92% | 0% | 0% | 91% | 0% | – | – | – | – | – | – | – | – | – | –
6 | COc1ccccc1-c1c(Cl)nc(-n2cccn2)c(=O)n1CC(C)C [compound 176] | 4% | 0% | 94% | 0% | 99% | 73% | 0% | 0% | 0% | 56% | 0% | – | – | – | – | – | – | – | – | – | –
7 | CC(C)(C)CCn1c(-c2c(F)cccc2F)c(Cl)nc(-n2cccn2)c1=O [compound 182] | 0% | 0% | 100% | 85% | 91% | 0% | 85% | 0% | 0% | 31% | 0% | – | – | – | – | – | – | – | – | – | –
8 | Cn1c(-c2c(F)cccc2F)c(Cl)nc(-n2cccn2)c1=O [compound 185] | – | – | – | – | – | – | – | – | – | – | – | 8* % | 0* % | 8* % | 0* % | 81* % | 0* % | 90* % | 0* % | 0* % | Test G disease control rating (Rhizoctonia oryzae; 40 ppm (*)): 0* %; Test B disease control rating ([3]; 40 ppm (*)): 0* %
9 | CSCC(C)n1c(-c2c(F)cccc2F)c(Cl)nc(-n2cccn2)c1=O (stereo not drawn) [compound 198] | – | – | – | – | – | – | – | – | – | – | – | 8* % | 0* % | 0* % | 0* % | 0* % | 0* % | 0* % | 0* % | 0* % | Test G disease control rating (Rhizoctonia oryzae; 40 ppm (*)): 0* %; Test B disease control rating ([3]; 40 ppm (*)): 0* %
10 | CSCC(C)n1c(-c2c(F)cccc2F)c(Cl)nc(-n2cncn2)c1=O (stereo not drawn) [compound 199] | – | – | – | – | – | – | – | – | – | – | – | 4* % | 0* % | 1* % | 0* % | 0* % | 0* % | 0* % | 0* % | 0* % | Test G disease control rating (Rhizoctonia oryzae; 40 ppm (*)): 0* %; Test B disease control rating ([3]; 40 ppm (*)): 0* %
11 | CC(CS(C)(=O)=O)n1c(-c2c(F)cccc2F)c(Cl)nc(-n2cccn2)c1=O (stereo not drawn) [compound 200] | – | – | – | – | – | – | – | – | – | – | – | 8* % | 0* % | 9* % | 0* % | 0* % | 0* % | 0* % | 0* % | 0* % | Test G disease control rating (Rhizoctonia oryzae; 40 ppm (*)): 0* %; Test B disease control rating ([3]; 40 ppm (*)): 0* %
12 | CC(CS(C)(=O)=O)n1c(-c2c(F)cccc2F)c(Cl)nc(-n2cncn2)c1=O (stereo not drawn) [compound 201] | – | – | – | – | – | – | – | – | – | – | – | 0* % | 0* % | 0* % | 0* % | 0* % | 0* % | 0* % | 0* % | 0* % | Test G disease control rating (Rhizoctonia oryzae; 40 ppm (*)): 0* %; Test B disease control rating ([3]; 40 ppm (*)): 0* %
13 | Cc1cccc(C)c1-c1c(Cl)nc(-n2cccn2)c(=O)n1CC(C)C [compound 202] | 12% | 0% | 100% | 100% | 100% | 99% | 99% | 0% | 45% | 99% | 93% | – | – | – | – | – | – | – | – | – | –
14 | CC(C)Cn1c(C(C)(C)C)c(Cl)nc(-n2cccn2)c1=O [compound 203] | 12% | 0% | 0% | 0% | 0% | 0% | 0% | 0% | 74% | 0% | 0% | – | – | – | – | – | – | – | – | – | –
15 | CC(C)Cn1c(C(C)C)c(Cl)nc(-n2cccn2)c1=O [compound 204] | 12% | 0% | 90% | 98% | 98% | 0% | 99% | 0% | 0% | 95% | 0% | – | – | – | – | – | – | – | – | – | –
16 | Cc1cccc(C)c1-c1c(Cl)nc(-n2cncn2)c(=O)n1CC(C)C [compound 205] | 12% | 0% | 100% | 97% | 100% | 0% | 81% | 0% | 0% | 85% | 0% | – | – | – | – | – | – | – | – | – | –
17 | CC(C)Cn1c(C(C)(C)C)c(Cl)nc(-n2cncn2)c1=O [compound 206] | 8% | 0% | 3% | 0% | 0% | 0% | 56% | 0% | 0% | 0% | 0% | – | – | – | – | – | – | – | – | – | –
18 | CC(C)Cn1c(C(C)C)c(Cl)nc(-n2cncn2)c1=O [compound 207] | 8% | 0% | 70% | 0% | 50% | 0% | 95% | 0% | 0% | 47% | 0% | – | – | – | – | – | – | – | – | – | –
